Series [1] has as its system human T-cell derived lyphoblastic leukemia cells (CCRF-CEM). In words: Reversal of cytotoxicity by addition of hypoxanthine/purines, AICA, thymidine or leucovorin. It is filed as cell-based. An excerpt:
(§1) As noted, the compounds of this invention have an effect on one or more enzymes which utilize folic acid, and in particular metabolic derivatives of folic acid, as a substrate. […] Cytotoxicity is not reversed by addition of purines such as hypoxanthine or by addition of aminoimidazolecarboxamide but is reversed by addition of thymidine, indicating specific inhibition in the tymidylate cycle and not in de novo purine synthesis. The compounds can be used, under the supervision of qualified professionals, to inhibit the growth of neoplasms including choriocarcinoma, leukemia, adenocarcinoma of the female breast, epidermid cancers of the head and neck, squamous or small-cell lung cancer, and various lymphosarcomas. The compounds can also be used to treat mycosis fungoides and psoriasis.
Cytotoxicity is also reversed by addition of leucovorin, indicating the cytotoxicity is due to antagonism of a folate-related mechanism.

The test system of series [2] is L5178Y/TK^- tumor line. In words: In vivo activity against L5178Y/TK^- tumor line in DBA/2 mice (female). As for the experimental part: In vivo activity can be seen from the following representative data for N-{4-[2-(4-hydroxy-6-aminopyrrolo[2,3-d]pyrimidin-3-yl)ethyl]benzoyl}-L-glutamic acid against the L5178Y/TK^- tumor line in DBA/2 mice (female), administration being ip in a total volume of 0.5 mL daily for eight days: […]

Series [3] deals with human T-cell derived lyphoblastic leukemia cells (CCRF-CEM). As to the kind of experiment: Inhibition of growth of CCRF-CEM cell cultures. It is filed as cell-based.
From the text: as §1
Representative inhibition values against CCRF-CEM 5 cell cultures for typical compounds are as follows: […]

Setting [4] is: dose 25.00, ip daily for eight days.
[5] abbreviates: dose 50.00, ip daily for eight days.
[6] abbreviates: dose 100.00, ip daily for eight days.
[7] abbreviates: dose 200.00, ip daily for eight days.

Molecules are shown by their SMILES. Bounds are passed on as bounds.

For the compound `Nc1nc2[nH]cc(CCc3ccc(C(=O)N[C@@H](CCC(=O)O)C(=O)O)cc3)c2c(=O)[nH]1`, the “Reversal of cytotoxicity by addition of aminoimidazolecarboxamide (AICA)” value in series [1] (addition of aminoimidazolecarboxamide (AICA)) is “not reversed”. The “Reversal of cytotoxicity by addition of purines such as hypoxanthine” value in series [1] (addition of hypoxanthine) is given as “not reversed”. Further, in series [1] (addition of thymidine), the “Reversal of cytotoxicity by addition of thymidine” value is “reversed”. Further, the Toxicity in series [2] (dose 12.50, ip daily for eight days) is 0/7; in series [2] (setting [4]), 0/7; in series [2] (setting [5]), 0/6; in series [2] (setting [6]) it was 0/7; in series [2] (setting [7]) it was 0/7. Also, the “% Inhibition” value in series [2] (setting [4]), in series [2] (setting [5]), in series [2] (setting [6]) and in series [2] (setting [7]) was 100% in each case. For the same compound, the “Tumor Weight” value in series [2] (setting [4]), in series [2] (setting [5]), in series [2] (setting [6]) and in series [2] (setting [7]) was 0 ± 0 each time.

Turning to `Nc1nc(O)c2c(CCc3ccc(C(=O)N[C@@H](CCC(=O)O)C(=O)O)o3)c[nH]c2n1` [N-{5-[2-(4-hydroxy-6-aminopyrrolo[2,3-d]pyrimidin-3-yl)ethyl]fur-2-ylcarbonyl}-L-glutamic acid], the 50% inhibitory concentration (IC50) (commonly the concentration at which inhibition is half-maximal) in series [3] is more than 20 µg/mL.

Values taken from patent US5344932A, “N-(pyrrolo(2,3-d)pyrimidin-3-ylacyl)-glutamic acid derivatives” (Trustees of Princeton University, priority 1991, dated 1994).
